Experimental data taken from patent US20140079836A1, “METHODS AND COMPOSITIONS FOR ALTERING HEALTH, WELLBEING, AND LIFESPAN” (LifeSpan Extension, LLC, priority 2008, published 2014).
“And” between values parts separate entries of the source, which are not always exact repeats. Equal entries are not always repeated.

System: entire human genome (gene expression profile)
Assay: Agilent whole human genome array, skin fibroblasts AG07999, antioxidant with or without UV
Assay type: cell-based
Settings: Alone
Description: Cell cultures: A human skin fibroblast cell culture was obtained through the Coriell Cell Repository from the National Institute on Aging Cell Repository. […] Culture media: Cells were grown in Minimal Essential Medium supplemented with 10% fetal bovine serum, 2 mM L-glutamine, 2 mM Glutamax I. […] All cultures were incubated at 37° C. with 5% CO2 in a humidified chamber. […] On Day 5 after 24 hours of exposure to test conditions, the cells were isolated and the RNA isolated using the RT^2q PCR-grade RNA isolation kit (Superarray Bioscience Corporation). […] Analysis of Agilent Whole Human Genome Arrays: RNA taken from both samples was sent to Cogenics, Inc. Morrisville, N.C. Cogenics, Inc. is a leading, state-of-the-art, microarray service provider that facilitates and accelerates transcriptome profiling and gene discovery processes for industrial and academic researchers. Cogenics' procedure for processing samples is as follows: RNA samples are received and analyzed by Cogenics, Inc. using rigorous standardized procedures that are designed to ensure quality and chain of custody. Each sample undergoes a thorough quality analysis using an Agilent Bioanalyzer microfluidics device, and is precisely quantified using a Nanodrop-1000 spectro-photometer. When the Agilent Oligonucleotide Microarray Platform is utilized, samples are fluorescently labeled using the Agilent Low-Input Linear Amplification Kit. Upon completion of this process, the labeled cRNA products are assessed using the same processes described above. These labeled samples are then fragmented and hybridized to oligonucleotide microarrays. The microarrays are washed and then scanned using an Agilent DNA Microarray Scanner with Sure Scan technology. Data is extracted from the images produced by the scanner using Agilent's Feature Extraction software. At this point, the scanned image is visually inspected for defects, and the extracted data is statistically analyzed to ensure quality of the assay. Extracted data and images can be loaded into Rosetta Resolver Gene Expression Data Analysis System for in-depth analysis, both from a quality standpoint, as well as to develop biological understanding. […] A table was generated and provided as a tab-delimited text file. This file will contain the log ratio, fold-change, log ratio p-value, etc. for every transcript measured by the microarray. Using Rosetta Resolver, a single ratio comparison was compiled based on the results of the two fluorophore reversal hybridization performed in the context of this project. The ratios were calculated such that the Tx sample was in the numerator and the UnTx sample was in the denominator. A table was generated, saved as tab-delimited text files, and is provided on the DVD that accompanied this report in the “Objective—1” subdirectory or the “Data_Analysis” directory. These files contain the log ratio, fold-change, log ratio p-value, etc. for every transcript present on the microarray. […] A table for will be generated and provided as a tab-delimited text file. The file will contain the log ratio, fold-change, log ratio p-value, etc. for only the differentially expressed transcripts within the context of the comparison. […] These criteria were applied to the comparison made in Objective 1. A table was generated, saved as tab-delimited text files, and is provided on the DVD that accompanied this report in the “Objective—1” subdirectory or the “Data_Analysis” directory. […] Cell cultures: A human skin fibroblast cell culture (or cultures) will be obtained through the Coriell Cell Repository from the National Institute on Aging Cell Repository. […] Culture media: Cells will be grown in Minimal Essential Medium supplemented with 10% fetal bovine serum, 2 mM L-glutamine, 2 mM Glutamax I.

COC1=C(OC)C(=O)C(CCCCCCCCCCO)=C(C)C1=O [Idebenone, 6-(10-hydroxydecyl)-2,3-dimethoxy-5-methyl-1,4-benzoquin-one]
MAPK8 Expression: −1.3 | MAPK9 Expression: −1.0 | MAPK12 Expression: −1.0 | MAPK14 Expression: 1.0 | MAPKAPK2 Expression: −1.4 | MAX Expression: −1.0 | MBD4 Expression: 1.0 | MCM2 Expression: 1.4 | MDH1 Expression: 1.0 | MGMT Expression: −1.3 | MKI67 Expression: 1.4 | MLH1 Expression: 1.0 | MLH3 Expression: 1.0 | MMP1 Expression: −1.4 | MMP2 Expression: −1.1 | MMP3 Expression: 2.3 | MMP7 Expression: −1.6 | MMP10 Expression: 1.0 | MMP11 Expression: 1.1 | MMP12 Expression: 1.7 | MMP13 Expression: 1.0 | MMP14 Expression: −1.1 | MMP15 Expression: −1.0 | MNAT1 Expression: 1.0 | MPG Expression: 1.0 | MRE11A Expression: 1.2 | MSH2 Expression: 1.0 | MSH3 Expression: 1.1 | MSH4 Expression: 1.0 | MSH6 Expression: 1.0 | MSRA Expression: −1.0 | MT2A Expression: −1.3 | MTAP Expression: 1.1 | MUTYH Expression: −1.0 | MVK Expression: 1.6 | MYBL2 Expression: 1.4 | MYCBP Expression: −1.0 | N4BP2 Expression: 1.1 | NADSYN1 expression: 1.2 | NBN Expression: −1.2 | NCK1 Expression: 1.0 | NEIL1 Expression: 1.5 | NEIL2 Expression: 1.2 | NEIL3 Expression: −1.0 | NF1 Expression: −1.1 | NFKB1 expression: −1.5 | NFKBIA Expression: 1.0 | NGFR Expression: 1.0 | NOS2A Expression: 1.0 | NP Expression: −1.2 | NR1D1 Expression: −1.6 | NRG1 Expression: 1.1 | NTHL1 Expression: 1.1 | NUDT1 Expression: 1.3 | NUDT2 Expression: −1.0 | OAS1 Expression: 1.3 | OAS2 Expression: 1.2 | OAS3 Expression: 1.0 | OGG1 Expression: −1.3 | PAK1 Expression: −1.0 | PAPSS1 Expression: −1.0 | PAPSS2 Expression: −1.0 | PARP1 Expression: 1.3 and 1.2 | PARP2 Expression: 1.3 | PCNA Expression: −1.0 | PDZK1IP1 Expression: 1.0 | PITRM1 Expression: −1.1 | PKM2 Expression: −1.1 | PLAT Expression: −1.1 | PLAU Expression: −1.6 | PLAUR Expression: −1.1 | PLK1 Expression: 1.3 | POLA2 Expression: 1.0 | PPARG Expression: −1.0 | PPIE Expression: 1.1 | PRDX6 Expression: −1.5 | PSMA2 Expression: 1.1 | PSMA3 Expression: 1.1 | PSMC6 Expression: 1.0 | PSMD1 Expression: −1.0 | PSMD11 Expression: 1.1 | PSMD12 Expression: 1.0 | PTGS1 Expression: 1.2 | RAF1 Expression: −1.0 | RB1 Expression: −1.5 | RET Expression: −1.0 | RORA Expression: −1.2 | RPL3 Expression: 1.0 | RPL13A Expression: −1.0 | RPS9 Expression: 1.2 | RPS10 Expression: 1.0 | RRAS Expression: −1.1 | RRM1 Expression: −1.0 | S100A7 Expression: 2.7 | S100A8 Expression: 1.0 | S100A10 Expression: −1.7 | S100A11 Expression: −1.1 | SDS Expression: −2.0 | SERPINB2 Expression: −2.9 | SERPINE1 Expression: −1.4 | SHC1 Expression: 1.2 and 1.0 | SIRT1 Expression: −1.2 | SLK Expression: −1.0 | SMAD1 Expression: 1.2 | SNCG Expression: 1.4 | SOD1 Expression: −1.0 | SOD2 Expression: 1.1 and 1.0 | SPARC Expression: −1.2 | SPP1 Expression: −2.7 | SPRR1B Expression: 1.0 | SRI Expression: −1.0 | STAT5A Expression: −1.0
